Columns and labels:
L6-myotubes [1] = test: Glucose uptake in differentiated L6-myotubes (Biological Example 2); assay type: cell-based; details: glucose uptake, compound at 10 μM relative to isoproterenol at 10 μM; for Emax at 10 µM: read-out: Biological example 2 (GU)
Method in brief: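 Uptake was quantified as radioactivity in 0.2 M NaOH lysates after a 10 min pulse of 50 nM ^3H-2-deoxyglucose. The pulse followed two agonist exposures at 1×10^−5 M final (isoprenaline or test compound): 1 h 40 min, then 20 min in glucose-free medium after washing. L6 myotubes had been starved overnight in medium with 0.5% fatty-acid-free BSA.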

L6-myotubes [2] = test: Measurement of intracellular cAMP levels in differentiated L6-myotubes (Biological Example 3); assay type: cell-based; details: intracellular cAMP, compound at 10 μM relative to isoproterenol at 10 μM; for Emax at 10 µM: 0.25 h
Method in brief: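 Intracellular cAMP quantified by AlphaScreen after ethanol extraction and lysis of L6 myotubes. Cells were serum-starved overnight, then exposed for 15 min to compound (final 1×10^−5 M) or isoprenaline in IBMX-containing (1 mM) HBSS buffer, pH 7.4.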

Compound | Emax at 10 µM (L6-myotubes [1]) [%] | Emax at 10 µM (L6-myotubes [2]) [%] | Biological example 2 (GU) (L6-myotubes [1]) | Biological example 3 (CAMP) (L6-myotubes [2])
CCC[C@H]1CC[C@H]([C@H](O)c2cccc(F)c2)N1 [Compound 124, (R)-[(2R,5S)-5-propyl-2-pyrrolidinyl](m-fluorophenyl)methanol] | 50 to 75 | < 25 |  | 
CCC[C@H]1CC[C@H]([C@H](O)c2cccc(O)c2)N1 [Compound 125, m-{(R)-[(2R,5S)-5-propyl-2-pyrrolidinyl] hydroxymethyl}phenol] | 50 to 75 | < 25 |  | 
CCC[C@@H]1CC[C@H]([C@@H](O)c2cccc(F)c2)N1 [Compound 126] | 25 to 50 | < 25 |  | 
CCC[C@@H]1CC[C@H]([C@@H](O)c2cccc(O)c2)N1 [Compound 127, m-{(S)-[(2R,5R)-5-propyl-2-pyrrolidinyl] hydroxymethyl}phenol] |  |  | + (if it is between 50 and 25% it is denoted with +) | − (if it less than 25% it is denoted with −)
CCC[C@H]1CCC[C@H]([C@@H](O)c2cccc(Cl)c2)N1 [Compound 128] | 25 to 50 | < 25 |  | 
CCC[C@H]1CC[C@@H]([C@H](O)c2cccc(F)c2)N1 [Compound 130, (R)-[(2S,5S)-5-propyl-2-pyrrolidinyl](m-fluorophenyl)methanol] | 25 to 50 | < 25 |  | 
CCC[C@H]1CC[C@@H]([C@@H](O)c2cccc(F)c2)N1 [Compound 131, (S)-[(2S,5S)-5-propyl-2-pyrrolidinyl](m-fluorophenyl)methanol] | 50 to 75 | < 25 |  | 
CCC[C@@H]1CC[C@@H]([C@H](O)c2cccc(F)c2)N1 [Compound 132, (R)-[(2S,5R)-5-propyl-2-pyrrolidinyl](m-fluorophenyl)methanol] | 25 to 50 | < 25 |  | 
CCC[C@@H]1CC[C@@H]([C@@H](O)c2cccc(F)c2)N1 [Compound 133, (S)-[(2,5R)-5-propyl-2-pyrrolidinyl](m-fluorophenyl)methanol] | 50 to 75 | < 25 |  | 
CC(C)(C)NCC(O)c1ccncc1O (centres unmarked) [Compound 134, 4-[2-(tert-butylamino)-1-hydroxyethyl]-3-pyridinol] | > 75 | < 25 |  | 
CCC[C@H]1CCC[C@H]([C@H](O)c2ccccc2Cl)N1 [Compound 135, (R)-[(2R,6S)-6-propyl-2-piperidyl](o-chlorophenyl)methanol] | 25 to 50 | < 25 |  | 
CCC[C@@H]1CCC[C@@H]([C@H](O)c2cccc(O)c2)N1 [Compound 136] | > 75 | < 25 |  | 
CCC[C@@H]1CCC[C@H]([C@@H](O)c2cccc(O)c2)N1 [Compound 137, (S)-[(2R,6R)-6-propyl-2-piperidyl](m-hydroxyphenyl)methanol] | 25 to 50 | < 25 |  | 
CC(C)(C)NC[C@H](O)c1cncc(Cl)c1 [Compound 138, (R)-2-(tert-butylamino)-1-(5-chloro-3-pyridyl)-1-ethanol] | > 75 | > 75 |  | 
CCC[C@H]1CCC[C@H]([C@@H](O)c2cncc(F)c2)N1 [Compound 139] | < 25 | < 25 |  | 
CCC[C@H]1CCC[C@H]([C@H](O)c2cncc(F)c2)N1 [Compound 140] | < 25 | < 25 |  | 
CCC[C@@H]1CC[C@H]([C@H](O)c2cccc(Cl)c2)N1 [Compound 141, (R)-[(2R,5R)-5-propyl-2-pyrrolidinyl](m-chlorophenyl)methanol] | 50 to 75 | < 25 |  | 
CC1(C)CC[C@@H]([C@H](O)c2cccc(O)c2)N1 [Compound 142, m-{(R)-[(S)-5,5-dimethyl-2-pyrrolidinyl] hydroxymethyl}phenol] | 25 to 50 | < 25 |  | 
CC1(C)CC[C@@H]([C@@H](O)c2cccc(O)c2)N1 [Compound 143] | < 25 | < 25 |  | 
CC1(C)CC[C@@H]([C@H](O)c2cccc(F)c2)N1 [Compound 144] | < 25 | < 25 |  | 
CC1(C)CC[C@@H]([C@@H](O)c2cccc(F)c2)N1 [Compound 145, (S)-[(S)-5,5-dimethyl-2-pyrrolidinyl](m-fluorophenyl)methanol] | 25 to 50 | < 25 |  | 
CC(C)(C)NC[C@H](O)c1ncccc1Cl [Compound 146, (S)-2-(tert-butylamino)-1-(3-chloro-2-pyridyl)-1-ethanol] | 25 to 50 | < 25 |  | 
CC(C)(C)NC[C@H](O)c1ccc(Cl)cn1 [Compound 147, (S)-2-(tert-butylamino)-1-(5-chloro-2-pyridyl)-1-ethanol] | 25 to 50 | < 25 |  | 

Compound | Emax at 10 µM (L6-myotubes [1]) [%] | Emax at 10 µM (L6-myotubes [2]) [%] | Biological example 2 (GU) (L6-myotubes [1]) | Biological example 3 (CAMP) (L6-myotubes [2])
CCC[C@@H]1CC[C@H]([C@H](O)c2ccccc2Cl)N1 [Compound 148, (R)-[(2R,5R)-5-propyl-2-pyrrolidinyl](o-chlorophenyl)methanol] | > 75 | < 25 |  | 
CC(C)(C)NC[C@H](O)c1ccc(F)c(N)c1F [Compound 149, (R)-1-(3-amino-2,4-difluorophenyl)-2-(tert-butylamino)-1-ethanol] | > 75 | 25 to 50 |  | 
Cc1c(F)cccc1[C@@H](O)CNC(C)(C)C [Compound 150, (R)-2-(tert-butylamino)-1-(3-fluoro-2-tolyl)-1-ethanol] | > 75 | 25 to 50 |  | 
CC1(C)CC[C@H]([C@@H](O)c2ccccc2Cl)N1 [Compound 151] | < 25 | < 25 |  | 
CC1(C)CC[C@H]([C@H](O)c2ccccc2Cl)N1 [Compound 152, (R)-[(R)-5,5-dimethyl-2-pyrrolidinyl](o-chlorophenyl)methanol] | > 75 | < 25 |  | 
CC1(C)CC[C@H]([C@@H](O)c2cccc(Cl)c2)N1 [Compound 153, (S)-[(R)-5,5-dimethyl-2-pyrrolidinyl](m-chlorophenyl)methanol] | 25 to 50 | < 25 |  | 
CC1(C)CC[C@H]([C@H](O)c2cccc(Cl)c2)N1 [Compound 154, (R)-[(R)-5,5-dimethyl-2-pyrrolidinyl](m-chlorophenyl)methanol] | > 75 | < 25 |  | 
CCC[C@H]1CCC[C@H]([C@@H](O)c2cccc(O)c2)N1 [Compound 155] | < 25 | < 25 |  | 
CC1(C)CC[C@H]([C@@H](O)c2cncc(F)c2)N1 [Compound 156] | < 25 | < 25 |  | 
CC1(C)CC[C@H]([C@H](O)c2cncc(F)c2)N1 [Compound 157, (R)-[(R)-5,5-dimethyl-2-pyrrolidinyl](5-fluoro-3-pyridyl)methanol] | > 75 | < 25 |  | 
CCCC1(CCC)CC[C@H]([C@@H](O)c2cccc(F)c2)N1 [Compound 158, (S)-[(R)-5,5-dipropyl-2-pyrrolidinyl](m-fluorophenyl)methanol] | < 25 | < 25 |  | 
CCCC1(CCC)CC[C@H]([C@H](O)c2cccc(F)c2)N1 [Compound 159] | 50 to 75 | < 25 |  | 
CCC[C@@H]1CC[C@H]([C@H](O)c2cncc(F)c2)N1 [Compound 160, (R)-[(2R,5R)-5-propyl-2-pyrrolidinyl](5-fluoro-3-pyridyl)methanol] |  | < 25 | +++ (If a compound at 10 μM shows activity of more than 75% of that of isoproterenol at 10 μM, the activity is denoted with +++) | 
CCC[C@@H]1CC[C@H]([C@H](O)c2cncc(F)c2)N1 [Compound 161] |  |  | + (if it is between 50 and 25% it is denoted with +) | − (if it less than 25% it is denoted with −)
CC1(C)CCC[C@H]([C@H](O)c2ccccc2Cl)N1 [Compound 162, (R)-[(R)-6,6-dimethyl-2-piperidyl](o-chlorophenyl)methanol] | 25 to 50 | < 25 |  | 
CC1(C)CCC[C@H]([C@@H](O)c2ccccc2Cl)N1 [Compound 163, (S)-[(R)-6,6-dimethyl-2-piperidyl](o-chlorophenyl)methanol] | > 75 | < 25 |  | 
CC1(C)CCC[C@H]([C@@H](O)c2cccc(Cl)c2)N1 [Compound 164] | 50 to 75 | < 25 |  | 
CC1(C)CCC[C@H]([C@H](O)c2cccc(Cl)c2)N1 [Compound 165] | 25 to 50 | < 25 |  | 
CC1(C)CC[C@H]([C@@H](O)c2cncc(O)c2)N1 [Compound 166, 5-{(S)-[(R)-5,5-dimethyl-2-pyrrolidinyl] hydroxymethyl}-3-pyridinol] | 25 to 50 | < 25 |  | 
CC1(C)CC[C@H]([C@H](O)c2cncc(O)c2)N1 [Compound 167, 5-{(R)-[(R)-5,5-dimethyl-2-pyrrolidinyl] hydroxymethyl}-3-pyridinol] | 50 to 75 | < 25 |  | 
O[C@H](c1cccc(F)c1)[C@H]1CCC2(CCCC2)N1 [Compound 168] | 50 to 75 | 25 to 50 |  | 
O[C@@H](c1cccc(F)c1)[C@H]1CCC2(CCCC2)N1 [Compound 169] | < 25 | < 25 |  | 
O[C@H](c1cccc(F)c1)[C@H]1CCC2(CC2)N1 [Compound 170, (R)-{(R)-4-aza-5-spiro[2.4]heptyl}(m-fluorophenyl)methanol] | 50 to 75 | < 25 |  | 
